Values of other authors as cited in article PMC6311893, “Computational prediction of plasma protein binding of cyclic peptides from small molecule experimental data using sparse modeling techniques” (BMC Bioinformatics, 2018).

Tested on: plasma protein
Conditions: fraction bound to plasma protein; small molecule dataset, sheet 1-SM (Set Dte = test, Dtr = training); ref Ingle et al.; cited from earlier work

| Molecule | PPB (fb) |
| --- | --- |
| CCN(CC)Cc1cc(Nc2ccnc3cc(Cl)ccc23)ccc1O [amodiaquine] | 0.9 |
| COc1ccc(NS(=O)(=O)c2ccc(N)cc2)nn1 [sulfamethoxypyridazine] | 0.75 |
| CO/N=C(\C(=O)N[C@@H]1C(=O)N2C(C(=O)O)=C(COC(C)=O)CS[C@H]12)c1csc(N)n1 [Cefotaxime] | 0.38 |
| CCNCC(O)c1cccc(O)c1 (stereo not drawn) [Etilefrine] | 0.24 |
| C/N=C(\NC)NCc1ccccc1 [bethanidine] | 0.1 |
| O=C(O)[C@H]1O[C@@H](Oc2cc3oc(-c4ccccc4)cc(=O)c3c(O)c2O)[C@H](O)[C@@H](O)[C@@H]1O [baicalin] | 0.66 |
| CC1(C)SC2C(NC(=O)C(N=[N+]=[N-])c3ccccc3)C(=O)N2C1C(=O)O (stereo not drawn) [azidocillin] | 0.8 |
| CO[C@H]1O[C@@H]2O[C@@]3(C)CC[C@H]4[C@H](C)CC[C@@H]([C@H]1C)[C@@]24OO3 [artemether] | 0.5 |
| O=C(O)Cc1ccccc1Nc1c(Cl)cccc1Cl [Diclofenac] | 0.995 |
| Cn1cnc([N+](=O)[O-])c1Sc1ncnc2nc[nH]c12 [azathioprine] | 0.25 |
| CN(C)C(=O)Oc1cc(OC(=O)N(C)C)cc(C(O)CNC(C)(C)C)c1 (stereo not drawn) [bambuterol] | 0.45 |
| CCN[C@@H]1C[C@H](N)[C@@H](O[C@H]2OC(CN)=CC[C@H]2N)[C@H](O)[C@H]1O[C@H]1OC[C@](C)(O)[C@H](NC)[C@H]1O [Netilmicin] | 0.05 |
| COCCc1ccc(OCC(O)CNC(C)C)cc1 (stereo not drawn) [Metoprolol] | 0.11 |
| COCC1=C(C(=O)OC(C)OC(=O)OC(C)C)N2C(=O)[C@@H](NC(=O)/C(=N\OC)c3csc(N)n3)[C@H]2SC1 (stereo partly drawn) [cefpodoxime proxetil] | 0.29 |
| CNC(=C[N+](=O)[O-])NCCSCc1ccc(CN(C)C)o1 [Ranitidine] | 0.1 |
| NS(=O)(=O)c1cc2c(cc1C(F)(F)F)NC(Cc1ccccc1)NS2(=O)=O (stereo not drawn) [bendrofluazide] | 0.94 |
| CC1(C)[C@@H](OC(=O)CCC(=O)O)CC[C@]2(C)[C@H]3C(=O)C=C4[C@@H]5C[C@@](C)(C(=O)O)CC[C@]5(C)CC[C@@]4(C)[C@]3(C)CC[C@@H]12 [carbenoxolone] | 0.99 |

Same assay, conditions: fraction bound to plasma protein; small molecule dataset, sheet 1-SM, Set Dtr; ref Ingle et al.; cited from earlier work

| Molecule | PPB (fb) |
| --- | --- |
| Fc1ccc([C@@H]2CCNC[C@H]2COc2ccc3c(c2)OCO3)cc1 [Paroxetine] | 0.94 |
| CC(C)(C)NC(=O)[C@H]1CC[C@H]2[C@@H]3CC=C4C=C(C(=O)O)CC[C@]4(C)[C@H]3CC[C@]12C [Epristeride] | 0.97 |
| CC(C)n1c(/C=C/C(O)CC(O)CC(=O)O)c(-c2ccc(F)cc2)c2ccccc21 (stereo not drawn) [Fluvastatin] | 0.99 |
| Cc1ccc(-c2ncc(Cl)cc2-c2ccc(S(C)(=O)=O)cc2)cn1 [Etoricoxib] | 0.92 |
| CO/N=C(\C(=O)N[C@@H]1C(=O)N2C(C(=O)O)=C(COC(N)=O)CS[C@H]12)c1ccco1 [Cefuroxime] | 0.32 |
| N=C(N)NC(=O)Cc1c(Cl)cccc1Cl [Guanfacine] | 0.72 |
| COCC(=O)Nc1c(I)c(C(=O)NCC(O)CO)c(I)c(C(=O)N(C)CC(O)CO)c1I (stereo not drawn) [Iopromide] | 0.01 |
| OC(CCN1CCCCC1)(c1ccccc1)C1CC2C=CC1C2 (stereo not drawn) [Biperiden] | 0.93 |
| CNCCCN1c2ccccc2CCc2ccccc21 [Desipramine] | 0.85 |
| CC(=O)OCC1=C(C(=O)O)N2C(=O)[C@@H](NC(=O)Cc3cccs3)[C@H]2SC1 [Cephalothin] | 0.73 |
| CC1=NS(=O)(=O)c2cc(Cl)ccc2N1 [Diazoxide] | 0.92 |
| Nc1ncnc2c1ncn2CCOCP(=O)(O)O [Adefovir] | 0.04 |
| CN(C)/N=N/c1[nH]cnc1C(N)=O [Dacarbazine] | 0.02 |
| C[C@H]1[C@H](OC(=O)CCC(=O)O)O[C@@H]2O[C@@]3(C)CC[C@H]4[C@H](C)CC[C@@H]1[C@@]24OO3 [Artesunate] | 0.75 |
| CCC1CN2CCC1CC2[C@@H](O)c1ccnc2ccc(OC)cc12 (stereo partly drawn) [Dihydroquinidine] | 0.78 |
| CN1C2CCCC1CC(NC(=O)c1nn(C)c3ccccc13)C2 (stereo not drawn) [Granisetron] | 0.65 |
| O=C(O)P(=O)(O)O [Foscarnet] | 0.15 |
| N=C(N)c1ccc(CNC(=O)[C@@H]2CCN2C(=O)[C@H](NCC(=O)O)C2CCCCC2)cc1 [Melagatran] | 0.07 |
| CO[C@@]1(NC(=O)C2SC(=C(C(N)=O)C(=O)O)S2)C(=O)N2C(C(=O)O)=C(CSc3nnnn3C)CS[C@@H]21 (stereo partly drawn) [Cefotetan] | 0.84 |
| Nc1ccn([C@@H]2O[C@H](CO)[C@@H](O)C2(F)F)c(=O)n1 [Gemcitabine] | 0.01 |
| CCC[C@@H]1C[C@@H](C(=O)N[C@@H]([C@H]2O[C@H](SC)[C@H](O)[C@@H](O)[C@H]2O)[C@@H](C)O)N(C)C1 [Lincomycin] | 0.76 |
| Nc1nc2c(ncn2CCC(CO)CO)c(=O)[nH]1 [Penciclovir] | 0.13 |

Same assay, conditions: fraction bound to plasma protein; small molecule dataset, sheet 1-SM; ref Ingle et al.; cited from earlier work

| Molecule | PPB (fb) |
| --- | --- |
| CC(C(=O)NCCN1CCCC1)c1ccc(OS(=O)(=O)C(F)(F)F)cc1 (stereo not drawn) [JMC_04] | 0.7 |
| COC(C(=O)NC1C(=O)N2C1SC(C)(C)C2C(=O)O)c1cccc(Cl)c1 (stereo not drawn) [penicillin40] | 0.83 |
| CNc1nc(N(C)C)nc(N(C)C)n1 [pentamethylmelamine] | 0.75 |
| CCc1nnc(NS(=O)(=O)c2ccc(N)cc2)s1 [sulfaethidole] | 0.97 |
| CC1(C)SC2C(NC(=O)C(N)c3ccc(Cl)cc3)C(=O)N2C1C(=O)O (stereo not drawn) [penicillin28] | 0.55 |
| CCc1ccc(CCOc2ccc(CC3SC(=O)NC3=O)cc2)nc1 (stereo not drawn) [pioglitazone] | 0.99 |
| CCOC(=O)[C@H](CCc1ccccc1)N[C@@H](C)C(=O)N1Cc2ccccc2C[C@H]1C(=O)O [quinapril] | 0.97 |
| CC/C=C/C/C=C/C/C=C/C/C=C/C=C/C(O)CCCC(=O)O (stereo not drawn) [hepe] | 0.99 |
| O=C(NCCNCC(O)COc1ccc(O)cc1)N1CCOCC1 (stereo not drawn) [Xamoterol] | 0.03 |
| CN(C)CC/C=C1\c2ccccc2CSc2ccccc21 [dothiepin] | 0.85 |
| CC1(C)SC2C(NC(=O)C(N)c3cccc(N)c3)C(=O)N2C1C(=O)O (stereo not drawn) [penicillin31] | 0.12 |
| COC(C(=O)NC1C(=O)N2C1SC(C)(C)C2C(=O)O)c1cccc(Br)c1 (stereo not drawn) [penicillin39] | 0.88 |
| N[C@@H](CC(=O)N1CCn2c(nnc2C(F)(F)F)C1)Cc1cc(F)c(F)cc1F [Sitagliptin] | 0.38 |
| CN(CC1(C)CCCO1)S(=O)(=O)c1ccc(Cl)c(S(N)(=O)=O)c1 (stereo not drawn) [mefruside] | 0.65 |
| CC(=O)Nc1ccc(OCC(O)CNC(C)C)cc1 (stereo not drawn) [practolol] | 0.3 |
| CC1(C)SC2C(NC(=O)c3ccccc3-c3ccccc3)C(=O)N2C1C(=O)O (stereo not drawn) [penicillin16] | 0.91 |
| CC(=O)NC(CS)C(=O)O (stereo not drawn) [n-acetylcysteine] | 0.83 |
| NC(=O)c1cnccn1 [Pyrazinamide] | 0.1 |
| COC(C(=O)NC1C(=O)N2C1SC(C)(C)C2C(=O)O)c1c(Cl)cccc1Cl (stereo not drawn) [penicillin41] | 0.84 |
| CN(C/C=C/C#CC(C)(C)C)Cc1cccc2ccccc12 [terbinafine] | 0.99 |
| O=C(NCCO[N+](=O)[O-])c1cccnc1 [nicorandil] | 0.25 |
| CC(=O)O[C@H]1C[C@@]2(C)[C@@H](C[C@@H](O)[C@H]3[C@@]4(C)CC[C@@H](O)[C@@H](C)[C@@H]4CC[C@@]32C)/C1=C(\CCC=C(C)C)C(=O)O [fusidic acid] | 0.95 |
| O=C(O)c1cc(/N=N/c2ccc(S(=O)(=O)Nc3ccccn3)cc2)ccc1O [sulfasalazine] | 0.97 |
| Cc1cccc(C)c1NC(=O)C(C)N (stereo not drawn) [Tocainide] | 0.13 |
| C[n+]1ccccc1/C=N/O [pralidoxime chloride] | 0.05 |
| CC1OC(OC2CC(O)(C(C)O)Cc3c(O)c4c(c(O)c32)C(=O)c2ccccc2C4=O)CC(N)C1O (stereo not drawn) [Idarubicinol] | 0.94 |
| CC(Oc1c(Cl)cccc1Cl)C(=O)NC1C(=O)N2C1SC(C)(C)C2C(=O)O (stereo not drawn) [penicillin57] | 0.96 |
| Cc1ccccc1OCC(O)CNCCOc1ccc(C(N)=O)cc1 (stereo not drawn) [Tolamolol] | 0.91 |

Same assay, conditions: plasma; cited from earlier work

| Molecule | PPB (fb) |
| --- | --- |
| Fc1ccccc1C1=NCC(=S)N(CC(F)(F)F)c2ccc(Cl)cc21 [quazepam] | 0.95 |
| CCC(=O)C(CC(C)N(C)C)(c1ccccc1)c1ccccc1 (stereo not drawn) [Methadone] | 0.84 |
| CC[C@@H](CO)NC(=O)[C@@H]1C=C2c3cccc4[nH]cc(c34)C[C@H]2N(C)C1 [methylergonovine] | 0.35 |
| C[C@@H]1O[C@@H](O[C@@H]2C=C3CC[C@@H]4[C@H](CC[C@]5(C)[C@@H](c6ccc(=O)oc6)CC[C@]45O)[C@@]3(C)CC2)[C@H](O)[C@H](O)[C@H]1O [proscillaridin] | 0.85 |
| CCO [ethanol] | 0 |
| C=CC[N@@+]12CC[C@@]34c5ccccc5N5/C=C6/[C@H]7C[C@H]8[C@@]9(CC[N@@+]8(CC=C)C/C7=C/CO)c7ccccc7N(/C=C(/[C@@H](C[C@@H]31)/C(=C\CO)C2)[C@H]54)[C@@H]69 [alcuronium] | 0.4 |
| O=C([O-])[O-].[Li+].[Li+] [Lithium Carbonate] | 0 |
| O=C(O)c1cc(O)c(O)c(O)c1 [gallic acid] | 0.32 |
| norgestimate | 0.99 |
| CN1C[C@H](C(=O)N[C@]2(C)O[C@@]3(O)[C@@H]4CCCN4C(=O)[C@H](Cc4ccccc4)N3C2=O)C=C2c3cccc4[nH]cc(c34)C[C@H]21 [Ergotamine] | 0.96 |
| C[C@]12CCC(=O)C(O)=C1CC[C@@H]1[C@@H]2CC[C@]2(C)C(=O)CC[C@@H]12 [formestane] | 0.84 |
| CC(C)CC(N(C)C)C1(c2ccc(Cl)cc2)CCC1 (stereo not drawn) [sibutramine] | 0.95 |
| CC(C)c1cccc(C(C)C)c1O [Propofol] | 0.98 |
| ClC1=C(Cl)[C@]2(Cl)[C@@H]3[C@@H]4C[C@@H]([C@H]5O[C@@H]45)[C@@H]3[C@@]1(Cl)C2(Cl)Cl [dieldrin] | 0.99 |
